Measured values as given in publication PMC8950173 (Pharmaceuticals, 2022).

Columns and labels:
[1] = biological target: T1, human recombinant HDAC1 (Homo sapiens, UniProt Q13547); assay: Inhibition assay HDAC1 (fluorogenic substrate ZMAL); type: biochemical; settings: 60 min preincubation at 25 °C
T1 construct: purchased BPS Bioscience Inc. 50051
Experimental: (§1) In vitro inhibitory activities against HDAC1−3 and HDAC6 were measured as previously published with minor modifications. […] Subsequently, 50 µL trypsin solution (0.4 mg/mL trypsin in buffer: 50 mM Tris−HCl, pH = 8.0, 100 mM NaCl) was added, followed by additional 30 min of incubation at 37 °C. […] All compounds were tested at least twice in duplicates.

[2] = biological target: T2, human recombinant HDAC2 (Homo sapiens, UniProt Q92769); assay: Inhibition assay HDAC2 (fluorogenic substrate ZMAL); type: biochemical; settings: 60 min preincubation at 25 °C
T2 construct: purchased BPS Bioscience Inc. 50052
T2 sequence (Q92769 whole entry): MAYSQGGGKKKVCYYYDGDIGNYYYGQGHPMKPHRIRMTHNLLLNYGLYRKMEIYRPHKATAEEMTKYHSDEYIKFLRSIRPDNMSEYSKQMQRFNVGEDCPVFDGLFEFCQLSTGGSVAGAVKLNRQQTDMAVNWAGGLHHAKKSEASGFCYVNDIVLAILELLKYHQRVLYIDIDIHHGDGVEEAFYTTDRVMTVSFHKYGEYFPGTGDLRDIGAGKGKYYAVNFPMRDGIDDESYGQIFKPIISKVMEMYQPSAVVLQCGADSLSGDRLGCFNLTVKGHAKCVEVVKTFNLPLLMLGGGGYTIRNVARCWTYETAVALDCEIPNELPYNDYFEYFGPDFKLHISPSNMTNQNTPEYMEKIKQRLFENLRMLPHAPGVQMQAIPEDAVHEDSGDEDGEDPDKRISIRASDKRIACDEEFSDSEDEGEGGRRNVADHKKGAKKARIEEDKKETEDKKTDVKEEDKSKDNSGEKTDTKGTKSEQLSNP
Experimental: as §1

[3] = biological target: human recombinant HDAC3/NcoR2 (Homo sapiens, UniProt O15379); assay: Inhibition assay HDAC3 (fluorogenic substrate ZMAL); type: biochemical; settings: for IC50: 60 min preincubation at 25 °C; for specificity ratio (HDAC1/HDAC3): HDAC1 over HDAC3, from IC50 values
Chain of human recombinant HDAC3/NcoR2 (O15379 whole entry): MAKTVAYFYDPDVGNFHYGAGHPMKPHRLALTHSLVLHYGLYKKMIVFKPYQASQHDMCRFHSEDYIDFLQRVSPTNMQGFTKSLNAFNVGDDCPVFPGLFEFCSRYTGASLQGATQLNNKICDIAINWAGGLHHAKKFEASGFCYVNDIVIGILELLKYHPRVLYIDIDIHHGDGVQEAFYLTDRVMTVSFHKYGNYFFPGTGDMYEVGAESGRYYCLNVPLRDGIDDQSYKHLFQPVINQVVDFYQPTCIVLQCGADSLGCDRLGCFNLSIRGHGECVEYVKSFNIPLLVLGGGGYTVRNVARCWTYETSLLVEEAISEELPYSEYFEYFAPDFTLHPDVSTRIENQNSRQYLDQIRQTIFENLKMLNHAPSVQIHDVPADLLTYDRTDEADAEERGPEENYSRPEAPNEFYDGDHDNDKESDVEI
Chain of human recombinant HDAC3/NcoR2 (Q9Y618 395-489 partner limits assumed): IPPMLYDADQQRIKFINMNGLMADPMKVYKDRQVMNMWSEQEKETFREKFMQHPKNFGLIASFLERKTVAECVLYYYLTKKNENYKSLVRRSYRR
Experimental: as §1

[4] = biological target: T3, human recombinant HDAC6 (Homo sapiens, UniProt Q9UBN7); assay: Inhibition assay HDAC6 (fluorogenic substrate ZMAL); type: biochemical; settings: for IC50: 15 min preincubation at 25 °C
T3 construct: purchased BPS Bioscience Inc. 50006
T3 sequence (Q9UBN7 1-1215): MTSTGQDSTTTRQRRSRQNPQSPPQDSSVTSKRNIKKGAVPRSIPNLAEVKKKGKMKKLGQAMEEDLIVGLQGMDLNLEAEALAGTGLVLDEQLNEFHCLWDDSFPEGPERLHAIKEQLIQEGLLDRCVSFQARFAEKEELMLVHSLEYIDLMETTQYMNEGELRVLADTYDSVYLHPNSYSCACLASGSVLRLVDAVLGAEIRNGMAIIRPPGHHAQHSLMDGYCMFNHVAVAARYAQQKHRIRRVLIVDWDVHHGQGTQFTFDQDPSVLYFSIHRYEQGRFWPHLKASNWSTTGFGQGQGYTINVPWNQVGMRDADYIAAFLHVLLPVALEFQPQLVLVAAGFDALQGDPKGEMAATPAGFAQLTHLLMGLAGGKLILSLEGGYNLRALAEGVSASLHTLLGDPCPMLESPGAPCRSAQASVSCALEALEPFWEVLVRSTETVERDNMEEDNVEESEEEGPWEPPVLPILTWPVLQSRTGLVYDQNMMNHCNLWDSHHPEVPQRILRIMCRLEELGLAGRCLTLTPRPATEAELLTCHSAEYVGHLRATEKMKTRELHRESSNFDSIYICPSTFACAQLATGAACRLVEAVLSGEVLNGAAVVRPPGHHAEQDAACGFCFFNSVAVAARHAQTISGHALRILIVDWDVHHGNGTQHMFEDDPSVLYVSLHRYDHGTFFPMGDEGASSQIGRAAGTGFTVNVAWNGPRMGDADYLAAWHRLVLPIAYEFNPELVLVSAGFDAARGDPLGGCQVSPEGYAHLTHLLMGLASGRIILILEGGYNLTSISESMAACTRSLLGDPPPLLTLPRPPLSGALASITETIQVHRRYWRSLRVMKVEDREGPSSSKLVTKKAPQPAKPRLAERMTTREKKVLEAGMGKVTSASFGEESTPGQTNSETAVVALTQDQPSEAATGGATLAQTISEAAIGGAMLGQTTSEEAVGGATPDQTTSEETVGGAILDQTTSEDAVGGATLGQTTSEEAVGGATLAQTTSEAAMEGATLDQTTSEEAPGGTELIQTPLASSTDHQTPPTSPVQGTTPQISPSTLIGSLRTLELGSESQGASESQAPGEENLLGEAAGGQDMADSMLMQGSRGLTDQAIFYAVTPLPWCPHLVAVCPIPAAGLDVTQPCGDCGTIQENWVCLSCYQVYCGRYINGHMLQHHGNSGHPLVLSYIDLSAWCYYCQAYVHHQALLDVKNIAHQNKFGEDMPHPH
Experimental: as §1

[5] = Solubility observed in cell culture medium; type: physicochemical; settings: 50 µM in cell culture medium supplemented with 0.5% DMSO
[6] = tested on: human U251-MG glioblastoma cells; assay: MTS assay, cancer cell viability, U251-MG; type: cell-based; settings: U-251, 72 h, mean ± SD, n = 3, read-out: Cell Viability [%] (Vehicle = 100%) U251-MG
Experimental: (§2) F98 cells (obtained from ATCC® Washington, DC, USA) and U251-MG cells (obtained from Drs A. Feldmann and N. Metwasi, Department of Radioimmunology, HZDR, Rossendorf, Germany) were cultivated in Dulbecco’s Modified Eagle Medium (DMEM, Gibco, Invitrogen, Dun Laoghaire, Ireland) supplemented with 10% heat inactivated fetal bovine serum (Gibco, Invitrogen, Dun Laoghaire, Ireland), and 100 U/mL penicillin and 100 µg/mL streptomycin (Gibco, Invitrogen, Dun Laoghaire, Ireland) in a humidified atmosphere in a CO2 incubator (37 °C, 5% CO2).
(§3) Proliferation of F98 and U251-MG cells was determined using a commercially available MTS assay (CellTiter 96® AQueous One Solution Cell Proliferation Assay, Promega GmbH, Walldorf, Germany). Briefly, the cells were seeded into 96-well plates at a density of 5 × 10^4 cells/well 24 h prior to the experiment at 37 °C in a humidified, 5% CO2 atmosphere. On the day of the experiment, the cell culture medium was replaced by fresh medium supplemented with either test compounds (working concentration: 50 µM; prepared by 1:200 dilution from a 10 mM stock solution in 100% DMSO with cell culture medium) or vehicle (0.5% DMSO in cell culture medium), and the cells were incubated for 72 h. Subsequently, 20 µL of the MTS solution was added per well and the plate was incubated in the CO2 incubator for another 2 h. Afterwards, the absorbance was measured at a wavelength of 490 nm using a microplate reader (Model 680 microplate reader, Bio-Rad Laboratories GmbH, Feldkirchen, Germany).

[7] = tested on: rat F98 glioma cells; assay: MTS assay, cancer cell viability, F98; type: cell-based; settings: 72 h, mean ± SD, n = 3, read-out: Cell Viability [%] (Vehicle = 100%) F98
Experimental: as §2, §3

T1 sequence (Q13547 whole entry): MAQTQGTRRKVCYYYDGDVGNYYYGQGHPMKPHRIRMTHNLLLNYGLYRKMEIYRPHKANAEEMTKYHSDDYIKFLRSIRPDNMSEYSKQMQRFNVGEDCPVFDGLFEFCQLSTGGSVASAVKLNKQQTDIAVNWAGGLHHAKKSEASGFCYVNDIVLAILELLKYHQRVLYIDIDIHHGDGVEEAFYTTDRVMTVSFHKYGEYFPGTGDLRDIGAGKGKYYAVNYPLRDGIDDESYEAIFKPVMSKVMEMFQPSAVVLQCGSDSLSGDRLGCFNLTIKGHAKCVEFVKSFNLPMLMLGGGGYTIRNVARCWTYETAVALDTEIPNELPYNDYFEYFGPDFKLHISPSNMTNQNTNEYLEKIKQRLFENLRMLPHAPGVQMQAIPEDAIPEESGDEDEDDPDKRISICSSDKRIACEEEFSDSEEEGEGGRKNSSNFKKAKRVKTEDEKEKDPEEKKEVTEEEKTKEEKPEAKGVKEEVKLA

CC(F)C(=O)NCc1ccc(C(=O)Nc2cc(-c3ccoc3)ccc2N)cc1 (stereo not drawn) [BA9, N-[2-amino-5-(furan-3-yl)phenyl]-4-[(2-fluoropropanamido)methyl]benzamide]
IC50 [1]: 19.8 ± 0.4 nM | IC50 [2]: 56.3 ± 0.2 nM | IC50 [3]: 2400 ± 250 nM | IC50 [4]: > 10000 nM

CC(F)C(=O)Nc1ccc(C(=O)Nc2cc(-c3ccsc3)ccc2N)cc1 (stereo not drawn) [BA4, N-[2-amino-5-(thiophen-3-yl)phenyl]-4-(2-fluoropropanamido)benzamide]
IC50 [1]: 11.2 ± 2.4 nM | IC50 [2]: 38.1 ± 4.5 nM | IC50 [3]: > 3330 nM | IC50 [4]: > 10000 nM

CC(F)C(=O)NCc1ccc(C(=O)Nc2cc(-c3cccs3)ccc2N)cc1 (stereo not drawn) [BA1, N-[2-amino-5-(thiophen-2-yl)phenyl]-4-[(2-fluoropropanamido)methyl]benzamide]
IC50 [1]: 4.8 ± 0.4 nM | IC50 [2]: 64.3 ± 4.5 nM | IC50 [3]: 2300 ± 190 nM | specificity ratio (HDAC1/HDAC3) [3]: 479 | IC50 [4]: > 10000 nM

CC(F)C(=O)Nc1ccc(C(=O)Nc2cc(-c3ccco3)ccc2N)cc1 (stereo not drawn) [BA8, N-[2-amino-5-(furan-2-yl)phenyl]-4-(2-fluoropropanamido)benzamide]
IC50 [1]: 24.2 ± 2.9 nM | IC50 [2]: 82.1 ± 0.1 nM | IC50 [3]: 4200 ± 80 nM | IC50 [4]: > 10000 nM

CC(F)C(=O)Nc1ccc(C(=O)Nc2cc(-c3ccoc3)ccc2N)cc1 (stereo not drawn) [BA10, N-[2-amino-5-(furan-3-yl)phenyl]-4-(2-fluoropropanamido)benzamide]
IC50 [1]: 17 ± 1.2 nM | IC50 [2]: 47.7 ± 2.9 nM | IC50 [3]: 3300 ± 480 nM | IC50 [4]: > 10000 nM

CC(F)C(=O)NCc1ccc(C(=O)Nc2cc(-c3ccsc3)ccc2N)cc1 (stereo not drawn) [BA3, N-[2-amino-5-(thiophen-3-yl)phenyl]-4-[(2-fluoropropanamido)methyl]benzamide]
IC50 [1]: 4.8 ± 0.6 nM | IC50 [2]: 39.9 ± 3.2 nM | IC50 [3]: > 1110 nM | specificity ratio (HDAC1/HDAC3) [3]: > 230 | IC50 [4]: > 10000 nM | specificity ratio HDAC1 over HDAC6 ([4]; from IC50 values): > 2080 | solubility in cell culture medium [5]: slight precipitation

Nc1ccccc1NC(=O)c1ccc(CNC(=O)OCc2cccnc2)cc1 [entinostat]
viability at 50 µM [6]: 55 ± 11.2% | viability at 50 µM [7]: 27.5 ± 4.4%

CC(F)C(=O)NCc1ccc(C(=O)Nc2cc(-c3ccco3)ccc2N)cc1 (stereo not drawn) [BA7, N-[2-amino-5-(furan-2-yl)phenyl]-4-[(2-fluoropropanamido)methyl]benzamide]
IC50 [1]: 20.4 ± 0.3 nM | IC50 [2]: 69.1 ± 1.2 nM | IC50 [3]: 3800 ± 180 nM | IC50 [4]: > 10000 nM

O=C(CCCCCCC(=O)Nc1ccccc1)NO [vorinostat]
viability at 50 µM [6]: 36.9 ± 7.6% | viability at 50 µM [7]: 24.4 ± 7.9%

CC(=O)Nc1ccc(C(=O)Nc2ccccc2N)cc1 [tacedinaline]
viability at 50 µM [6]: 28.5 ± 3% | viability at 50 µM [7]: 27.1 ± 3%

CC(F)C(=O)Nc1ccc(C(=O)Nc2cc(-c3ccc(F)cc3)ccc2N)cc1 (stereo not drawn) [BA6, N-(4-amino-4′-fluoro-[1,1′-biphenyl]-3-yl)-4-(2-fluoropropanamido)benzamide]
IC50 [1]: 14.9 ± 0.4 nM | IC50 [2]: 56.6 ± 0.6 nM | IC50 [3]: > 1110 nM | specificity ratio (HDAC1/HDAC3) [3]: > 74 | IC50 [4]: > 10000 nM

CC(F)C(=O)Nc1ccc(C(=O)Nc2cc(-c3cccs3)ccc2N)cc1 (stereo not drawn) [BA2, N-[2-amino-5-(thiophen-2-yl)phenyl]-4-(2-fluoropropanamido)benzamide]
IC50 [1]: 8.3 ± 1.4 nM | IC50 [2]: 33.5 ± 1.5 nM | IC50 [3]: > 1110 nM | IC50 [4]: > 10000 nM

CC(F)C(=O)NCc1ccc(C(=O)Nc2cc(-c3ccc(F)cc3)ccc2N)cc1 (stereo not drawn) [BA5, N-(4-amino-4′-fluoro-[1,1′-biphenyl]-3-yl)-4-[(2-fluoropropanamido)methyl]benzamide]
IC50 [1]: 10.2 ± 0.4 nM | IC50 [2]: 32.2 ± 5.5 nM | IC50 [3]: 1300 ± 70 nM | IC50 [4]: > 10000 nM
